# Reference: the supplement of paper PMC10331698
# ± gives the standard deviation of the averaged measurements.
# Experiments:
# Assay in all cases: level (log10 ratio to DMSO vehicle control); higher = higher biomarker level / cell amount than vehicle control
# [1] = compound: C=CC(=O)OCC(F)(F)C(F)(F)C(F)(F)COC(=O)C=C [1H,1H,5H,5H-Perfluoro-1,5-pentanediol diacrylate]; conditions: 6700 nM; in DMSO
# Protocol: (§1)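 BioMAP Diversity Plus panel of 12 human primary cell co-culture systems (3C, 4H, LPS, SAg, BT, BF4T, BE3C, CASM3C, HDF3CGF, KF3CT, MyoF, Mphg). Compounds were added 1 h before stimulation and left for 24 h (MyoF 48 h; BT 72 h for soluble read-outs or 6 d for IgG). Biomarkers were read by ELISA, cytotoxicity by SRB, PBMC viability and proliferation by Alamar Blue. Each well value was divided by the mean of 8 DMSO control wells on the same plate and log10 transformed; duplicate blinded samples were tested at 4 concentrations.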
# [2] = compound: O=C(O)C=CC(F)(C(F)(F)F)C(F)(F)F [3-(Perfluoroisopropyl)-2-propenoic acid]; conditions: in DMSO
# Protocol: as §1
# [3] = compound: O=C(O)C(F)(F)C(F)(F)C(F)(F)C(F)(F)C(F)(F)C(F)(F)C(F)(F)C(F)(F)C(F)(F)C(F)F [11-H-Perfluoroundecanoic acid]; conditions: in DMSO
# Protocol: as §1
# [4] = compound: O=S(=O)(Cl)C(F)(F)C(F)(F)C(F)(F)C(F)(F)C(F)(F)C(F)(F)C(F)(F)C(F)(F)F [Perfluoro-1-octanesulfonyl chloride]; conditions: in DMSO
# Protocol: as §1
# Heptafluorobutyl iodide = compound: FC(F)(F)C(F)(F)C(F)(F)CI [Heptafluorobutyl iodide]; conditions: in DMSO
# Protocol: as §1
# [5] = compound: NC(=O)C(F)(F)C(F)(F)C(F)(F)C(F)F; conditions: in DMSO
# Protocol: as §1
# [6] = compound: COC(=O)C(F)(F)C(F)(F)OC(F)(C(F)(F)F)C(F)(F)OC(F)=C(F)F [Methyl perfluoro(3-(1-ethenyloxypropan-2-yloxy)propanoate)]; conditions: in DMSO
# Protocol: as §1
# [7] = compound: O=S(=O)(O)C(F)(F)C(F)(F)C(F)(F)C(F)(F)C(F)(F)C(F)(F)C(F)(F)C(F)(F)C(F)(F)C(F)(F)F [Sodium perfluorodecanesulfonate]; conditions: in DMSO
# Protocol: as §1
# [8] = compound: FC(F)(F)C(F)(F)C(F)(F)C(F)(F)C(F)(F)C(F)(F)C(F)(F)I [1-Iodopentadecafluoroheptane]; conditions: in DMSO
# Protocol: as §1
# [9] = compound: C=C(C)C(=O)OCCC(F)(F)C(F)(F)C(F)(F)C(F)(F)C(F)(F)C(F)(F)F [6:2 Fluorotelomer methacrylate]; conditions: in DMSO
# Protocol: as §1
# [10] = compound: NS(=O)(=O)C(F)(F)C(F)(F)C(F)(F)C(F)(F)C(F)(F)C(F)(F)F [Perfluorohexanesulfonamide]; conditions: in DMSO
# Protocol: as §1
# [11] = compound: O=S(=O)(O)CCC(F)(F)C(F)(F)C(F)(F)C(F)(F)C(F)(F)C(F)(F)F [6:2 Fluorotelomer sulfonic acid]; conditions: in DMSO
# Protocol: as §1
# [12] = compound: FC(F)(F)C(F)(F)CNCC(F)(F)C(F)(F)F [Bis(1H,1H-perfluoropropyl)amine]; conditions: in DMSO
# Protocol: as §1
# [13] = compound: O=S(=O)(F)C(F)(F)C(F)(F)C(F)(F)C(F)(F)C(F)(F)C(F)(F)C(F)(F)C(F)(F)F [Perfluorooctanesulfonyl fluoride]; conditions: in DMSO
# Protocol: as §1
# Hexafluoroamylene glycol = compound: OCC(F)(F)C(F)(F)C(F)(F)CO [Hexafluoroamylene glycol]; conditions: in DMSO
# Protocol: as §1
# Octafluoroadipamide = compound: NC(=O)C(F)(F)C(F)(F)C(F)(F)C(F)(F)C(N)=O [Octafluoroadipamide]; conditions: in DMSO
# Protocol: as §1
# [14] = compound: FC(F)(F)C(F)(F)C(F)(F)C(F)(F)C(F)(F)C(F)(F)CC1CO1 [3-(Perfluorohexyl)-1,2-epoxypropane]; conditions: in DMSO
# Protocol: as §1
# Nonafluoropentanamide = compound: NC(=O)C(F)(F)C(F)(F)C(F)(F)C(F)(F)F [Nonafluoropentanamide]; conditions: in DMSO
# Protocol: as §1
# [15] = compound: FC(F)(F)C(F)(F)C(F)(F)CC1CO1 [1H,1H-Heptafluorobutyl epoxide]; conditions: in DMSO
# Protocol: as §1
test system,measurement,setting,value
CASM3C:CD142/Tissue Factor,level (log10),[1],-0.0325 ± 0.015
same,level (log10),[2]; 6700 nM,-0.037 ± 0.028
same,level (log10),[2]; 20000 nM,-0.0315 ± 0.053
same,level (log10),[2]; 60000 nM,-0.01 ± 0.067
same,level (log10),[3]; 6700 nM,-0.031 ± 0.0085
same,level (log10),[3]; 20000 nM,-0.0365 ± 0.012
same,level (log10),[4]; 6700 nM,-0.0095 ± 0.04
same,level (log10),[4]; 20000 nM,-0.0455 ± 0.037
same,level (log10),[4]; 60000 nM,-0.0595 ± 0.032
same,level (log10),Heptafluorobutyl iodide; 6700 nM,0.0065 ± 0.0035
same,level (log10),Heptafluorobutyl iodide; 20000 nM,-0.0175 ± 0.0035
same,level (log10),Heptafluorobutyl iodide; 60000 nM,0.0095 ± 0.056
same,level (log10),[5]; 6700 nM,-0.01 ± 0.017
same,level (log10),[5]; 20000 nM,-0.001 ± 0.011
same,level (log10),[5]; 60000 nM,-0.0075 ± 0.00071
same,level (log10),[6]; 6700 nM,0.0075 ± 0.022
same,level (log10),[6]; 20000 nM,0.0285 ± 0.012
same,level (log10),[7]; 1500 nM,0.044 ± 0.025
same,level (log10),[7]; 4400 nM,-0.0045 ± 0.021
same,level (log10),[7]; 13000 nM,0.0295 ± 0.036
same,level (log10),[7]; 40000 nM,0.082 ± 0.016
same,level (log10),[8]; 6700 nM,-0.0185 ± 0.016
same,level (log10),[8]; 20000 nM,-0.043 ± 0.024
same,level (log10),[9]; 6700 nM,-0.0075 ± 0.033
same,level (log10),[9]; 20000 nM,-0.0175 ± 0.029
same,level (log10),[9]; 60000 nM,-0.0035 ± 0.0078
same,level (log10),[10]; 6700 nM,-0.0145 ± 0.023
same,level (log10),[10]; 20000 nM,-0.0275 ± 0.012
same,level (log10),[10]; 60000 nM,0.0175 ± 0.018
same,level (log10),[11]; 6700 nM,-0.01 ± 0.013
same,level (log10),[11]; 20000 nM,-0.0345 ± 0.021
same,level (log10),[11]; 60000 nM,0.007 ± 0.02
same,level (log10),[12]; 6700 nM,-0.0175 ± 0.0021
same,level (log10),[12]; 20000 nM,-0.0085 ± 0.054
same,level (log10),[12]; 60000 nM,-0.0095 ± 0.046
same,level (log10),[13]; 6700 nM,0.018 ± 0.0014
same,level (log10),[13]; 20000 nM,0.0095 ± 0.0035
same,level (log10),[13]; 60000 nM,0.0025 ± 0.005
same,level (log10),Hexafluoroamylene glycol; 6700 nM,-0.0025 ± 0.016
same,level (log10),Hexafluoroamylene glycol; 20000 nM,-0.0125 ± 0.0035
same,level (log10),Hexafluoroamylene glycol; 60000 nM,0.008 ± 0.024
same,level (log10),Octafluoroadipamide; 6700 nM,0.0005 ± 0.028
same,level (log10),Octafluoroadipamide; 20000 nM,-0.006 ± 0.025
same,level (log10),Octafluoroadipamide; 60000 nM,-0.034 ± 0.014
same,level (log10),[14]; 6700 nM,-0.0085 ± 0.005
same,level (log10),[14]; 20000 nM,-0.0415 ± 0.042
same,level (log10),[14]; 60000 nM,0.005 ± 0.073
same,level (log10),Nonafluoropentanamide; 6700 nM,0.0195 ± 0.13
same,level (log10),Nonafluoropentanamide; 20000 nM,0.0125 ± 0.026
same,level (log10),Nonafluoropentanamide; 60000 nM,-0.031 ± 0.028
same,level (log10),[15]; 6700 nM,-0.0165 ± 0.016
same,level (log10),[15]; 20000 nM,-0.037 ± 0.027
same,level (log10),[15]; 60000 nM,-0.039 ± 0.02
